According to a compilation of properties of binary mixtures (doi:10.1021/je060497d):

Experiment: xn = mol fraction of the nth substance listed
Conditions: 101 kPa

CCCCCC[n+]1ccn(C)c1.F[P-](F)(F)(F)(F)F + CC(C)O
speed of sound [m/s]
Conditions | x1 = 0.0011 | x1 = 0.0019 | x1 = 0.0024 | x2 = 0 | x2 = 0.0067 | x2 = 0.074 | x2 = 0.189 | x2 = 0.3042 | x2 = 0.3877 | x2 = 0.5107
293.15 K | 1157 | – | – | – | 1437 | 1427 | 1408 | 1388 | – | –
298.15 K | 1140 | 1141 | 1141 | 1424 | 1423 | 1413 | 1396 | 1375 | – | 1325
303.15 K | 1122 | 1124 | 1124 | 1411 | 1410 | – | 1383 | 1363 | 1346 | 1313

CCCC[n+]1ccn(C)c1.F[P-](F)(F)(F)(F)F + CC(C)O
speed of sound [m/s]
Conditions | x1 = 0.0008 | x1 = 0.0011 | x2 = 0 | x2 = 0.0458 | x2 = 0.1055 | x2 = 0.1825 | x2 = 0.2864
293.15 K | 1156 | – | 1455 | – | 1441 | 1429 | 1409
298.15 K | 1139 | 1140 | 1443 | 1437 | 1429 | 1417 | 1397
303.15 K | – | 1122 | 1431 | 1425 | 1417 | 1405 | 1385

COS(=O)(=O)[O-].Cn1cc[n+](C)c1 + CC(C)O
speed of sound [m/s]
Conditions | 293.15 K | 298.15 K | 303.15 K
x2 = 0 | 1826 | 1813 | –
x2 = 0.0498 | 1807 | 1797 | 1785
x2 = 0.0958 | 1791 | 1777 | –
x2 = 0.2008 | – | 1729 | 1720
x2 = 0.3063 | 1684 | 1670 | 1662
x2 = 0.4013 | 1611 | 1605 | 1602
x2 = 0.4957 | 1525 | 1534 | 1534
x2 = 0.5945 | – | 1444 | 1459
x2 = 0.7039 | 1338 | 1352 | 1370
x2 = 0.8013 | 1269 | 1271 | 1292
x2 = 0.9019 | – | 1198 | 1207
x2 = 0.951 | – | 1167 | 1166

CCCC[n+]1ccn(C)c1.F[P-](F)(F)(F)(F)F + CCC(C)=O
speed of sound [m/s]
Conditions | 293.15 K | 298.15 K | 303.15 K
x2 = 0 | 1455 | 1443 | 1431
x2 = 0.0509 | 1449 | 1438 | –
x2 = 0.0987 | 1444 | 1433 | 1419
x2 = 0.1907 | 1433 | 1421 | –
x2 = 0.2915 | 1418 | 1408 | 1393
x2 = 0.4057 | 1399 | 1390 | 1374
x2 = 0.5074 | 1380 | 1369 | 1349
x2 = 0.5956 | – | – | 1322
x2 = 0.7008 | – | – | 1292
x2 = 0.7919 | 1301 | 1286 | 1260
x2 = 0.8942 | 1265 | 1248 | 1220
x2 = 0.9467 | – | 1224 | 1195

COS(=O)(=O)[O-].Cn1cc[n+](C)c1 + CCC(C)=O
speed of sound [m/s]
Conditions | x1 = 0.0006 | x1 = 0.0012 | x1 = 0.0029 | x2 = 0 | x2 = 0.0257 | x2 = 0.0716 | x2 = 0.2017 | x2 = 0.2926
293.15 K | 1214 | – | 1217 | 1826 | 1819 | 1803 | 1750 | 1703
298.15 K | 1194 | 1195 | – | – | – | 1791 | 1737 | 1689
303.15 K | – | 1165 | 1168 | 1801 | – | – | 1724 | 1676

CCOC(C)=O + CCCCCCCC[n+]1ccn(C)c1.F[P-](F)(F)(F)(F)F
x1 = 1
Conditions | speed of sound [m/s]
298.15 K | 1141
303.15 K | 1111

CC(C)O + CCCC[n+]1ccn(C)c1.F[P-](F)(F)(F)(F)F
x1 = 1
Conditions | speed of sound [m/s]
293.15 K | 1156
303.15 K | 1121

CCC(C)=O + CCCC[n+]1ccn(C)c1.F[P-](F)(F)(F)(F)F
Conditions | speed of sound [m/s]
303.15 K, x1 = 1 | 1163

CCOC(C)=O + CCCC[n+]1ccn(C)c1.F[P-](F)(F)(F)(F)F
Conditions | speed of sound [m/s]
293.15 K, x1 = 1 | 1162

CCCCCCCC[n+]1ccn(C)c1.F[P-](F)(F)(F)(F)F + CCOC(C)=O
speed of sound [m/s]
Conditions | 293.15 K | 298.15 K | 303.15 K
x2 = 0 | 1424 | 1408 | 1393
x2 = 0.0048 | – | 1408 | –
x2 = 0.0967 | 1408 | 1393 | 1379
x2 = 0.1981 | 1391 | 1377 | 1364
x2 = 0.2967 | 1375 | 1361 | 1348
x2 = 0.3954 | 1358 | 1344 | 1330
x2 = 0.5056 | 1337 | 1323 | –
x2 = 0.6061 | 1315 | 1299 | 1284
x2 = 0.7059 | 1288 | 1271 | 1253
x2 = 0.8004 | – | 1236 | 1218
x2 = 0.9036 | 1209 | 1189 | 1169
x2 = 0.9453 | 1189 | – | 1147

CCCC[n+]1ccn(C)c1.F[P-](F)(F)(F)(F)F + CCOC(C)=O
speed of sound [m/s]
Conditions | 293.15 K | 298.15 K | 303.15 K
x2 = 0 | 1455 | 1443 | 1431
x2 = 0.0501 | 1447 | 1436 | 1420
x2 = 0.1003 | 1438 | 1427 | –
x2 = 0.1854 | 1421 | 1412 | 1401
x2 = 0.3 | – | 1391 | 1378
x2 = 0.4064 | 1379 | 1366 | 1354
x2 = 0.5117 | 1350 | – | –
x2 = 0.6032 | 1319 | 1310 | 1291
x2 = 0.7061 | 1280 | – | –
x2 = 0.802 | 1240 | 1228 | 1207
x2 = 0.9021 | – | 1180 | 1160
x2 = 0.948 | – | 1162 | 1137

COS(=O)(=O)[O-].Cn1cc[n+](C)c1 + CCOC(C)=O
speed of sound [m/s]
Conditions | x2 = 0 | x2 = 0.0509 | x2 = 0.0706 | x2 = 0.0928 | x2 = 0.1254 | x2 = 0.1451
293.15 K | 1826 | 1808 | – | 1792 | 1775 | 1765
298.15 K | 1813 | 1795 | 1789 | 1778 | 1765 | 1752
303.15 K | 1801 | 1782 | 1777 | 1764 | 1746 | –

CC(C)O + COS(=O)(=O)[O-].Cn1cc[n+](C)c1
x1 = 1
Conditions | speed of sound [m/s]
293.15 K | 1156
303.15 K | 1121

CCC(C)=O + COS(=O)(=O)[O-].Cn1cc[n+](C)c1
x1 = 1
Conditions | speed of sound [m/s]
293.15 K | 1212
303.15 K | 1163

CCOC(C)=O + COS(=O)(=O)[O-].Cn1cc[n+](C)c1
x1 = 1
Conditions | speed of sound [m/s]
293.15 K | 1162
303.15 K | 1111
